The text below walks through data of patent publication US8557844B2, “Substrate reduction therapy” (The Chancellor, Masters and Scholars of the University of …, priority 2007, dated 2013).

Entries after “also recorded” stand apart in the source; their conditions may differ.

Data set [1] concerns free cholesterol storage and abnormal lipid endocytosis. As to conditions: cited from earlier work.
In data set [2] the test system is RAW mouse macrophages. The data set is described as follows: Cholesterol levels (filipin) in RAW cells treated with AY9944. As to conditions: for cholesterol levels (filipin): 1 mM AY9944 in LPDS medium. Format: cell-based. As for the experimental part:
(§1) RAW mouse macrophages grown in medium supplemented with LPDS for 5 days to elevate endogenous cholesterol biosynthesis were treated with […] AY9944 in medium supplemented with lipoprotein deficient serum (LPDS) for a further 5 or 10 days to induce storage of 7-DHC. […] This correlated with abnormal transport of a fluorescent GSL analogue of lactosylceramide (LacCer)—BODIPY-LacCer.
(§2) FIG. 4 consists of micrographs which together show the induction of an NPC phenotype in cholesterol null RAW cells. All RAW cells were grown in medium supplemented with LPDS for 5 days (controls) to reduce exogenously derived cholesterol prior to addition of 1 μM AY9944 to inhibit endogenous cholesterol synthesis for a further 5 days or 10 days (as indicated). Alterations in sphingolipid trafficking were measured in live cells using BODIPY-LacCer (lower panels), cholesterol levels in fixed cells were measured with filipin (upper panels). Endocytic cholesterol storage in cholesterol depleted cells was induced by growth in medium supplemented with 10% FCS for a further 24 h. For each condition n=2, images are representative of at least 10 captured fields, scale bar=5 μm.

Data set [3] deals with RAW mouse macrophages. The data set is described as follows: BODIPY-LacCer transport in RAW cells treated with AY9944. Format: cell-based. As for the experimental part:
as §1, §2

Data set [4] deals with T1, 3β-hydroxysterol Δ7-reductase (Mus musculus, UniProt O88455).
T1 construct: RAW mouse macrophages grown in medium supplemented with LPDS for 5 days to elevate endogenous cholesterol biosynthesis; endogenous in cells; host or cells: RAW mouse macrophages
T1 sequence (O88455 1-471): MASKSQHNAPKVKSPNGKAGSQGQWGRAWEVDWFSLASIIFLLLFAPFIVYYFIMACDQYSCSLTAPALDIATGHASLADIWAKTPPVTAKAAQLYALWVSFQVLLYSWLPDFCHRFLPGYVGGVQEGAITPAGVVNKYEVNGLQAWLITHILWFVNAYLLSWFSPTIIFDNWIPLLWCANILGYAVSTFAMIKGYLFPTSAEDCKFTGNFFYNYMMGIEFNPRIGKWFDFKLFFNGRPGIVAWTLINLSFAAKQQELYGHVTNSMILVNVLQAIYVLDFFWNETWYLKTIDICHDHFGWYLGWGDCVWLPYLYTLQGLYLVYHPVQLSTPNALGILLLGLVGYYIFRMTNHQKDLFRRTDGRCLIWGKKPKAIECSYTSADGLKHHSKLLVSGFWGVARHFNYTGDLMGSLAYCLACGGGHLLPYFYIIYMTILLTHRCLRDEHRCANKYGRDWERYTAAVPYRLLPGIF
To be noted: cited from earlier work.

The test system of the next data set is GSL levels. To be noted: mice; cited from earlier work.
For data set [5] the following is noted: cited from earlier work.
In data set [6] the test system is NPC1 null (CT43) CHO cells. To be noted: NB-DNJ treatment; cited from earlier work.
Data set [7] has as its system NPC1 null (CT43) CHO cells. To be noted: NB-DNJ treatment; cited from earlier work. The source holds these as a separate data set.
The subject of data set [8] is peripheral blood B lymphocytes. As to conditions: NPC patient, B cells over 6 months; cited from earlier work.
For data set [9] the following is noted: interim data after 12 months of a 2-year trial; cited from earlier work.
Another data set relates to mammalian cells. To be noted: liposomes of dioleoylphosphatidylethanolamine and cholesteryl hemisuccinate; cited from earlier work.
Another data set deals with sialyltransferase. As to conditions: cited from earlier work.
Data set [10] has as its target T2, human α-1,3-fucosyltransferase V (Homo sapiens, UniProt Q11128).
T2 sequence (Q11128 1-374): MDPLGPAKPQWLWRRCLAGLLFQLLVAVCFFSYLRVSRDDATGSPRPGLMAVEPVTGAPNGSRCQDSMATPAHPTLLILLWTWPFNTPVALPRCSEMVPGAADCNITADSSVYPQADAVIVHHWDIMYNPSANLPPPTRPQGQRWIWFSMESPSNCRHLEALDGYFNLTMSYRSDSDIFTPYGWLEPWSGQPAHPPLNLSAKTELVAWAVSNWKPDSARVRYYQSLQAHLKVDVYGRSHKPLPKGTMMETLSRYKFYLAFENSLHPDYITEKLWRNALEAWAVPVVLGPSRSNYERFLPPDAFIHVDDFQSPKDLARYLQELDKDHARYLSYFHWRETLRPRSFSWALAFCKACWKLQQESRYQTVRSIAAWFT
As to conditions: in the presence of guanosine diphosphate (GDP); cited from earlier work.

Another data set relates to rat recombinant α-2,3-ST. To be noted: rat recombinant enzyme; read-out: IC(50), α-2,3-ST; cited from earlier work.
The target of the next data set is T3, rat recombinant α-2,6-ST (Rattus norvegicus, UniProt P13721).
T3 sequence (P13721 1-403): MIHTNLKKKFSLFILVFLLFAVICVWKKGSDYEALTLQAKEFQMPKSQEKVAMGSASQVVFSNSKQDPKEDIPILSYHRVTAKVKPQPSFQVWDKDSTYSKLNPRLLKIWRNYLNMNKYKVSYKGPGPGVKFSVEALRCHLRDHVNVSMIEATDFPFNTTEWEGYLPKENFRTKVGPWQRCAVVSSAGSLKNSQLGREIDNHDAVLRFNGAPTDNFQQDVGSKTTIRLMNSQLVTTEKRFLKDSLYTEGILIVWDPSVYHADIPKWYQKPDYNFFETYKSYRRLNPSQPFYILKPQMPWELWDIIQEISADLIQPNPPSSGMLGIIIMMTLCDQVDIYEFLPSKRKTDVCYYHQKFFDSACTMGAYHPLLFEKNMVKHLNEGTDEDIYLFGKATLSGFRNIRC
To be noted: rat recombinant enzyme; read-out: IC(50), α-2,6-ST; cited from earlier work.

Consider `CC(C)CCC[C@@H](C)[C@H]1CC[C@H]2[C@@H]3C(=O)C=C4C[C@@H](O)CC[C@]4(C)[C@H]3CC[C@]12C` [7-ketocholesterol], for which the “free cholesterol storage and lipid endocytosis” value in data set [1] was “induce free cholesterol storage and abnormal lipid endocytosis”.
Turning to `Clc1ccccc1CNCC1CCC(CNCc2ccccc2Cl)CC1` (centres unmarked) [AY9944], the “cholesterol levels (filipin)” value in the data set with RAW mouse macrophages [2] (5 days) is on record as “slight decrease in cholesterol levels”; with RAW mouse macrophages [2] (10 days), “markedly reduced”. Also, the “localisation of exogenously derived cholesterol” value in the data set on RAW mouse macrophages [2] (10 day AY9944, then medium with 10% FCS) was “exogenously derived cholesterol became trapped in punctate LE”. In addition, the BODIPY-LacCer transport entry in the data set with RAW mouse macrophages [3] (5 days post AY9944, 30 min pulse, 90 min chase) is “transported to the Golgi”; with RAW mouse macrophages [3] (10 days post AY9944), “trapped in punctate LE/Lys”. For the same molecule, in data set [4], the 7-DHC level entry is “accumulation of 7-DHC”.
For `CCN(CC)CCO[C@H]1CC[C@@]2(C)C(=CC[C@@H]3[C@@H]2CC[C@]2(C)C(=O)CC[C@@H]32)C1` [Compound U18666A], in data set [1], the “free cholesterol storage and lipid endocytosis” value is “induce free cholesterol storage and abnormal lipid endocytosis”; the “induction of NPC1 phenotype” value was “can induce an NPC1 phenotype”.
On to `CCCCN1C[C@H](O)[C@@H](O)[C@H](O)[C@H]1CO` [NB-DNJ, N-butyldeoxynojirimycin], for which, in the data set on GSL levels, the “decrease in GSL levels (onset)” value is listed as “measurable decrease in GSL levels within a day of treatment” and the “treatment time after which effect on GSL levels stabilizes” value is 10 days. The neurological side effects entry in data set [5] (adult mice) is on record as “not to cause neurological side effects”. Moreover, in [5] (mouse, in vivo), the CNS penetration result is listed as “penetrate the CNS” and the “effects on behaviour or CNS development” value is “without significant effects on behaviour or CNS development”. Further, the “GSL storage in NPC1 cells” value in data set [6] was “reduction in GSL storage in the endo/lysosomal system; also recorded: lowers GSL storage in NPC1 cells to control levels”. In data set [7], the “endocytosis in NPC1 cells” value is “corrects abnormal endocytosis”. Besides, in data set [8], the endosomal uptake entry is “improved endosomal uptake”, the “lipid trafficking in peripheral blood B lymphocytes” value was “greatly improved”, the pathological lipid storage entry is listed as “reduced” and the “total late endosomal/lysosomal compartment” value is on record as “almost normalised”. The “clinical benefit, saccadic eye movement” value in data set [9] is listed as “stabilization or improvement in saccadic eye movement”. Moreover, in the data set on mammalian cells, the “factor by which liposomes reduced the required dose” value is 1000.
As to `C[C@@H]1O[C@@H](O[C@H]2[C@H](O[C@H]3[C@H](O[C@H]4CC[C@@]5(C)[C@@H](CC[C@]6(C)[C@@H]5CC=C5[C@@H]7CC(C)(C)C[C@@H](O)[C@]7(C)CC[C@]56C)[C@@]4(C)CO)O[C@H](C(=O)O)[C@@H](O)[C@@H]3O)O[C@H](CO)[C@H](O)[C@@H]2O)[C@H](O)[C@H](O)[C@H]1O` [Soyasaponin I], in the data set on sialyltransferase, the sialyltransferase inhibition result was “potent and specific sialyltransferase inhibitor”.
Consider `CN(C)CCCN1c2ccccc2CCc2ccccc21` [imipramine], for which the “free cholesterol storage and lipid endocytosis” value in data set [1] is “induce free cholesterol storage and abnormal lipid endocytosis”.
`CC(=O)[C@H]1CC[C@H]2[C@@H]3CCC4=CC(=O)CC[C@]4(C)[C@H]3CC[C@]12C` [progesterone]: in data set [1], the “free cholesterol storage and lipid endocytosis” value is “induce free cholesterol storage and abnormal lipid endocytosis”; the “induction of NPC1 phenotype” value is on record as “can induce an NPC1 phenotype”.
Take `CCCO[C@H]1O[C@H](CO)[C@@H](O[C@@H]2O[C@H](CO)[C@H](O)[C@H](O)[C@H]2O)[C@H](OCCN2C(C)C(O)C(O)C(O)C2CO)[C@H]1NC(C)=O` (stereo partly drawn) [propyl 2-acetamido-2-deoxy-4-O-(β-D-galactopyranosyl)-3-O-(2-(N-(β-L-homofuconojirimycinyl))ethyl)-α-D-glucopyranoside]: the “inhibition of human α-1,3-fucosyltransferase V” value in data set [10] is on record as “effective inhibitor”.
As to cytidin-5′-yl sialylethylphosphonate, the IC50 with rat recombinant α-2,3-ST is 47 µM; at rat recombinant α-2,6-ST it was 340 µM.
